According to patent US20220023269A1, “Methods Of Treating Diabetes In Severe Insulin-Resistant Diabetic Subjects” (Balticgruppen Bio AB, priority 2018, published 2022):

Tests used:
Type in all cases: cell-based
[1] = test system: rat skeletal L6 myotubes; experiment: Glucose uptake in L6 myotubes; details: 2.5, 5, 10 μM; absence of insulin; siAMPKα1/α2
Procedure: Rat L6 skeletal muscle cells grown in high-glucose (4.5 g/L) Dulbecco's Modified Eagle Medium (Gibco #31966), 10% fetal bovine serum (Gibco #10500-064) and 25 μg/ml gentamicin (Gibco 1 #5750) were induced to differentiate, by reducing the serum concentration to 2% for 14 days by which time the majority of myoblast had differentiated to myotubes. Myotubes were rinsed in serum-free low-glucose (1 g/L) DMEM (Gibco a #21885), treated with vehicle control, 2.5, 5 and 10 μM test material (serum-free low-glucose DMEM, 0.1% DMSO) for 2 hours, rinsed in serum-free DMEM w/o glucose (Gibco #11966) and thereafter incubated with the same for 20 minutes before addition of 1 μCi 2-Deoxy-D-glucose (2-DG) (Perkin Elmer #NET549A250UC) for 10 minutes. The cells were rinsed 3 times in serum-free DMEM w/o glucose and lysed in 1 ml RIPA buffer (150 mM Sodiumchloride, 1% NP40, 0.5% Sodiumdeoxycholate, 0.1% SDS, 50 mM Tris pH8.0). 300 μl were added to 4 ml liquid scintillation cocktail (Perkin Elmer #1200-437) before counted, 1 minute, in a Wallac 1414 beta counter. CPM was converted to arbitrary units by setting vehicle control as 1. […]

[2] = test system: AMPK in rat insulinoma INS-1 cells; experiment: AMPK activation in INS-1 insulinoma cells; details: 2.5, 5, 10 μM, 2 hours
Procedure: All cell lines were lysed in 0.1 M Tris-HCl, pH 6.8, 2% SDS, 10 mM sodium fluoride (SIGMA #S7920), 10 mM β-glycerophosphate (SIGMA #G6376), and 1 mM sodium vanadate (SIGMA #72060) and supernatant collected after 1 minute at 14,000 rpm. Islets (human and mouse) were lysed in 0.1 M Tris-HCl, pH 6.8, 2% SDS, protease inhibitor (Roche #04 693 124 001) and phosphatase inhibitor (Roche #04 906 837 001). Right calf muscle, heart, iWAT, and interscapular BAT was crushed in a pestle using liquid nitrogen and homogenised in ice cold RIPA buffer (150 mM sodium chloride (SIGMA #S7653), 1.0% NP40 (USB), 0.5% sodium deoxycholate (SIGMA #D6750), 0.1% SDS, 50 mM Tris pH 8.0, 20 mM sodium pyrophosphate (SIGMA #71515), 10 mM sodium fluoride, 10 mM β-glycerolphosphate, 1 mM sodium vanadate and protease inhibitor cocktail (Roche #04693124001), 1 tablet/10 ml lysis buffer). The supernatant was collected after 2 min at 14,000 rpm. This procedure was repeated until all fat was eliminated and the supernatant was clear, at 4° C. Samples were analysed on 4-15% polyacrylamide gels. Values were normalised toward AMPKα, β-Actin, GAPDH or the respective non-phosphorylated counterpart.
Table 3 contains origin of cell lines, growth conditions and settings for activation of AMPK via the test material. […]

[3] = test system: primary mouse islets; experiment: Unfolded protein response gene expression in islets at 22 mM glucose
Procedure: For RNA purification calf muscle, iWAT, interscapular BAT, and left lateral liver lobe was crushed in a pestle using liquid nitrogen before turning to respective RNA kit. RNA from liver was prepared using Total RNA isolation Nucleospin II Kit (Macherey-Nagel #740955.50). RNA from adipose tissue was prepared using RNeasy Lipid Tissue Mini kit (Qiagen #74804). RNA from calf muscle tissue was prepared using RNeasy Fibrous Tissue Mini kit (Qiagen #74704). First strand cDNA synthesis was done using SuperScript III (First-Strand Synthesis SuperMix for qRT-PCR, Invitrogen #11752-250) according to the manufacturer's instructions. Total RNA was prepared from isolated islets using RNeasy Micro Kit (Qiagen #74004) and first strand cDNA synthesis was done using Superscript III (Invitrogen #18080-051) according to the manufacturer's instructions. Quantification of mRNA expression levels was performed essentially as previously described (Reference 3). Tyrosine 3-monooxygenase/tryptophan 5-monoxygenase activation protein, zeta polypeptide (YWHAS) was used to normalise expression levels except for islets where TBP was used.

## O=C(Nc1nc(=O)n(Cc2ccc(Cl)cc2)s1)c1ccc(Cl)cc1 [test material, 4-chloro-N-[2-[(4-chlorophenyl)methyl]-3-oxo-1,2,4-thiadiazol-5-yl]benzamide]
[1]
  2-Deoxy-D-glucose (2-DG) uptake: increased 2-Deoxy-D-glucose (2-DG) uptake in a dose- and AMPK-dependent manner
[2]
  pAMPKα: directly increased pAMPKα
[3]
  expression of unfolded protein response genes (ER stress): largely prevented an increased expression of unfolded protein response genes
